Source: patent publication US20240254164A1, “PURIFICATION OF SPECIFIC TRIPEPTIDE BY ACIDIFICATION” (DSM IP Assets B.V., priority 2021, published 2024)
Blank lines part the entries; values can stand above or below the compound they belong to. Non-standard residues stand in square brackets, D forms with d. Residues, ends and D or L forms follow the SMILES beside them. Met(O2) = CS(=O)(=O)CC[C@H](N)C(=O)O

Columns and labels:
Assay type in all cases: physicochemical
[1] = Precipitation of different acidified tripeptides from aqueous solution heated to reflux and cooled to room temperature; settings: 0.5 mol/L aqueous solution, reflux, cooled to room temperature
From the text: Aqueous solutions of different tripeptides acidified to the pH as given in table 2 were heated to reflux temperature. The clear solutions (0.5 mol/L) have been cooled to room temperature.
The fine particles of example 3 formed at the bottom of the vessel have been collected by a filtration over a glass frit filter.

[2] = Susceptibility against oxidation by atmospheric oxygen; settings: compared to the corresponding tripeptide Ac-Met-Val-Val-OH
[3] = Precipitation of the tripeptide from aqueous LiOH solution on acidification with HCl and cooling to 4° C.; settings: 54 mg in 0.2 ml 0.1 M aqueous LiOH, pH lowered from 9 with 2M HCl, cooled to 4° C.
Method: 54 mg Ac-Met(O2)-Val-Val-OH have been dissolved in 0.2 ml 0.1 M aqueous LiOH. A clear solution is formed. The pH was lowered from 9 to the pH as indicated in table 1 by adding 2M HCl and cooled to a temperature of 4° C.
In example 1, a precipitation the tripeptide in fine particles at the bottom of the vessel was observed is formed which was separated by filtration over a glass frit filter.

[4] = Precipitation of acidified tripeptide dissolved in water at reflux and cooled to 4° C. (Example 2); settings: pH 1.9; 67.3 g in 500 ml water at reflux, cooled to 4° C. within 2.5 hours, kept 30 minutes
Method: 67.3 g acidified Ac-Met(O2)-Val-Val-OH was dissolved in 500 ml water (pH 1.9 of solution) at reflux. The solution was cooled to 4° C. within 2.5 hours and kept at 4° C. during 30 minutes.

- Observation after cooling ([1]; pH 0.9): No particles formed
Compound: CC(=O)N[C@@H](CO)C(=O)N1CCC[C@H]1C(=O)N[C@@H](C)C(=O)O [Ac-Ser-Pro-Ala-OH] (Ac-Ser-Pro-Ala-OH)

- Observation after cooling ([3]; pH 2): Fine particles formed
- Observation after cooling ([3]; pH 3): Opaque solution. No particles formed
- Observation after cooling ([1]; pH 2): Fine particles formed
- Observation after cooling [4]: fine particles formed
Compound: CC(=O)N[C@@H](CCS(C)(=O)=O)C(=O)N[C@H](C(=O)N[C@H](C(=O)O)C(C)C)C(C)C [Ac-Met(O2)-Val-Val-OH] (Ac-[Met(O2)]-Val-Val-OH)
- Susceptibility against oxidation by atmospheric oxygen [2]: significant lower susceptibility against oxidation

- Observation after cooling ([1]; pH 1.5): No particles formed
Compound: CC(=O)N[C@@H](CCC(N)=O)C(=O)N1CCC[C@H]1C(=O)N[C@@H](C)C(=O)O [Ac-Gln-Pro-Ala-OH] (Ac-Gln-Pro-Ala-OH)
